pIC50: −log10 of the molar value.
What was measured:
in vitro = settings: human, microsomes, pH 7.4
Description: Microsomal incubations were carried out in 96-well plates in 5 aliquots of 40 μL each (one for each time point). […] Control incubations were performed replacing the NADPH-cofactor system with PBS. […] Incubations were performed in duplicates. Five time points over 40 minutes had been analyzed. The reactions were stopped by adding 12 volumes of 90% acetonitrile-water to incubation aliquots, followed by protein sedimentation by centrifuging at 5500 rpm for 5 minutes. Supernatants were analyzed using the HPLC system coupled with tandem mass spectrometer. The elimination constant (kel), half-life (t1/2) and intrinsic clearance (Clint) were determined in plot of […] versus time, using linear regression analysis: […]

[1] = tested on: PSA levels secreted into the media; assay: Prostate-specific antigen (PSA) assay; type: cell-based; settings: Homo sapiens, 72 h; in parallel to the eGFP assay, same plates, 3 days
Description: (§1) 1. Cell Culture: LNCaP and PC3 human prostate cancer cells were obtained from American Type Culture Collection (ATCC, Manassas, Va.) and grown in RPMI 1640 medium supplemented with 5% fetal bovine serum (FBS) (Invitrogen). The LNCaP eGFP cell line was stably transfected with an androgen-responsive probasin-derived promoter fused to an eGFP reporter (LN-ARR2PB-eGFP) using a lentiviral approach, and were grown in phenol-red-free RPMI 1640 supplemented with 5% CSS. In-house developed MDV3100-resistant LNCaP cells were cultured in RPMI 1640 supplemented with 5% FBS and 10 μM MDV3100. All cells were maintained at 37° C. in 5% CO2.
3. Prostate-specific antigen (PSA) assay: The evaluation of PSA levels secreted into the media was performed in parallel to the eGFP assay using the same plates. After cells were incubated for 3 days, 150 μl of the media was taken from each well, and added to 150 μl of PBS. PSA levels were then evaluated using Cobas e 411 analyzer instrument (Roche Diagnostics) according to the manufacturer's instructions.

[2] = target: T1, AR transcriptional activity (Homo sapiens, UniProt P10275, T878A); assay: eGFP cellular AR transcription assay; type: cell-based; settings: LNCaP eGFP cell line
T1 construct: The LNCaP eGFP cell line was stably transfected with an androgen-responsive probasin-derived promoter fused to an eGFP reporter; endogenous in cells; host or cells: LNCaP eGFP (LN-ARR2PB-eGFP) human prostate cancer cells
T1 sequence (P10275 1-920 T878A): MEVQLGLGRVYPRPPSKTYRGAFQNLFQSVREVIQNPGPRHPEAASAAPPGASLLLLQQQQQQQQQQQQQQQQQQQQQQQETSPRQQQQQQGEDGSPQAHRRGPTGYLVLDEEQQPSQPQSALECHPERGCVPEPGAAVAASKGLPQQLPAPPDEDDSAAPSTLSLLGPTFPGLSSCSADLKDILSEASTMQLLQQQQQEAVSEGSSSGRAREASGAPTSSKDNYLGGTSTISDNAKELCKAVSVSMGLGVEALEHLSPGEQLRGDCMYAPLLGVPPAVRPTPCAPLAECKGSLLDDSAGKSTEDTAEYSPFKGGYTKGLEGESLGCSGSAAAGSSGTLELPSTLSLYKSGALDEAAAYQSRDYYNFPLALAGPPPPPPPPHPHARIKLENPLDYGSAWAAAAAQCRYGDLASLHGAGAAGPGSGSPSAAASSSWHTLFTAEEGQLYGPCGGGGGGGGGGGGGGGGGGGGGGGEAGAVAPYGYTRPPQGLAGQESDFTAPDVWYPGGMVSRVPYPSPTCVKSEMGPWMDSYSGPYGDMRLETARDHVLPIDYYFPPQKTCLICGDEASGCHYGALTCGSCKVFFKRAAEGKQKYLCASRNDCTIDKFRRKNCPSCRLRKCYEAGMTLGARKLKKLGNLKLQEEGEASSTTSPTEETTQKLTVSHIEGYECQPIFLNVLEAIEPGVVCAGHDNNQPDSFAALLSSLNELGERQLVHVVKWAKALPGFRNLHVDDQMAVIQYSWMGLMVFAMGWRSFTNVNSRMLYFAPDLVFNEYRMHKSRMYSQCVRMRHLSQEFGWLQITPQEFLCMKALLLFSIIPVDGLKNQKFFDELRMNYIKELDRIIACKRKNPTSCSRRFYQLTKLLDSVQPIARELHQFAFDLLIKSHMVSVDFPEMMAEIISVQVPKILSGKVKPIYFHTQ
Text: The DNA-binding domain is an attractive target for inhibition of AR dimerization and/or DNA binding. In silico computational drug discovery methods were used to conduct a virtual screen of >3 million purchasable lead-like compounds from the ZINC database (Irwin, J. et al.^11) to identify potential DBD binders. The in silico methods included large-scale docking, in-site rescoring and consensus voting procedures. It will be understood by a person of skill that COOH and NR2 may include the corresponding ions, for example carboxylate ions and ammonium ions, respectively. Alternatively, where the ions are shown, a person of skill in the art will appreciate that the counter ion may also be present. Furthermore, it will be appreciated by a person of skill that other moieties may include the corresponding ions, and where the ions are shown, a person of skill in the art will appreciate that the counter ion may also be present. […] Where the % inhibition, eGFP IC50 or the PSA IC50 has no value given, this may be because no measurement was taken or the value was not calculated, in the case of the % inhibition. In vitro identification of AR inhibitors targeting AR DBD The selected compounds were assessed with a non-destructive eGFP assay that quantifies levels of AR transcriptional activity, were identified (table below).
as §1
2. eGFP cellular AR transcription assay: The AR transcriptional activity was assayed as previously described (Tavassoli, P., et al.^12).

CSc1nc(Br)cn1-c1csc(N2CCOCC2)n1 [Example 41, 4-[4-(4-bromo-2-methylsulfanyl-imidazol-1-yl)thiazol-2-yl]morpholine]
microsomal CLint at 2 μM (in vitro): 198 µL/min/mg
pIC50 [1]: 6.34
pIC50 [2]: 6.30

Cc1nc(Br)cn1-c1csc(N2CCOCC2)n1 [Example 42, 4-[4-(4-bromo-2-methyl-imidazol-1-yl)thiazol-2-yl]morpholine]
microsomal CLint at 2 μM (in vitro): 72 µL/min/mg
pIC50 [1]: 6.18
pIC50 [2]: 6.12

CC1(C)CN(c2nc(-n3cc(Br)nc3Br)cs2)CCO1 [Example 1, 4-[4-(2,4-dibromoimidazol-1-yl)thiazol-2-yl]-2,2-dimethyl-morpholine]
pIC50 [1]: 7.02
pIC50 [2]: 6.93

Brc1ncn(-c2csc(N3CCOCC3)n2)c1Br [Example 43, 4-[4-(4,5-dibromoimidazol-1-yl)thiazol-2-yl]morpholine]
microsomal CLint at 2 μM (in vitro): 165 µL/min/mg
pIC50 [1]: 5.86
pIC50 [2]: 5.91

Brc1cn(-c2csc(N3CCOCC3)n2)c(Br)n1 [Example 40, 4-[4-(2,4-dibromoimidazol-1-yl)thiazol-2-yl]morpholine]
microsomal CLint at 2 μM (in vitro): 177 µL/min/mg
pIC50 [1]: 6.38
pIC50 [2]: 6.38

Clc1ncn(-c2csc(N3[C@@H]4CC[C@H]3COC4)n2)c1Br [Example 6, (1R,5S)-8-[4-(5-bromo-4-chloro-imidazol-1-yl)thiazol-2-yl]-3-oxa-8-azabicyclo[3.2.1]octane]
pIC50 [1]: 6.42
pIC50 [2]: 6.39

Clc1c(Br)ncn1-c1csc(N2[C@@H]3CC[C@H]2COC3)n1 [Example 8, (1R,5S)-8-[4-(4-bromo-5-chloro-imidazol-1-yl)thiazol-2-yl]-3-oxa-8-azabicyclo[3.2.1]octane]
pIC50 [1]: 6.14
pIC50 [2]: 6.14

From US20200031848A1, “AR-V7 INHIBITORS” (Hoffmann-La Roche Inc., priority 2016, published 2020)
